Read-outs that look alike come from different tables or passages of the source.

The text below walks through data of PMC2685384, “Binding characteristics of the ovine membrane progesterone receptor alpha and expression of the receptor during the estrous cycle” (Reproductive Biology and Endocrinology : RB&E, 2009).

In assay [1] the target is T1, ovine membrane progesterone receptor alpha (mPRα) (Ovis aries, UniProt A0ACI6Q1G6).
T1 construct: gene PAQR7; ovine mPRα expressed in CHO cells; digitonin-treated crude membrane fractions
T1 sequence (A0ACI6Q1G6 1-350): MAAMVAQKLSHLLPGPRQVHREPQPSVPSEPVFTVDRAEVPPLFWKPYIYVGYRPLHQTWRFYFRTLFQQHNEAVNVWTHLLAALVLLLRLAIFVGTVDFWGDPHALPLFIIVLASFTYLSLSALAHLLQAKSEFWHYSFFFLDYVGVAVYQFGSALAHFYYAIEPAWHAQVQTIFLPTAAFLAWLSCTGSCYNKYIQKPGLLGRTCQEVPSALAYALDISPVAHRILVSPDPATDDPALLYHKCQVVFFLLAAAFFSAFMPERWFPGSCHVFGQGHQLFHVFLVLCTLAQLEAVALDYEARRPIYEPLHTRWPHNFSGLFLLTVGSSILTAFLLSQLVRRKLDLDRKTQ
The experiment in a line: radioligand competition against 3H-progesterone on mPRα-CHO membranes. The format is binding.

In assay [2] the target is T1, ovine membrane progesterone receptor alpha (mPRα). The experiment in a line: 3H-progesterone saturation binding on membranes of stable mPRα-CHO cells (also competition, IC50 =[…]).

On to `CC(=O)[C@@]1(O)CC[C@H]2[C@@H]3CCC4=CC(=O)CC[C@]4(C)[C@H]3CC[C@@]21C` [17-OH-P4, 17α-hydroxyprogesterone], for which the IC50 in assay [1] (read-out: IC50) stood at 735 nM. Consider `C[C@H](O)[C@H]1CC[C@H]2[C@@H]3CCC4=CC(=O)CC[C@]4(C)[C@H]3CC[C@]12C` [20-OH-P4, 20α-hydroxyprogesterone], for which, in assay [1], the IC50 is 298 nM. `CC(=O)[C@H]1CC[C@H]2[C@@H]3CCC4=CC(=O)CC[C@]4(C)[C@H]3CC[C@]12C` [P4, progesterone] came in with a Kd in assay [2] of 122 nM. This lies in the sub-micromolar range.
